Results: patent publication US8680290B2, “Isoxazoline derivatives and their use as herbicides” (Syngenta Limited, priority 2004, dated 2014)

Experiments:
[1] = system: Monocotyledonous and dicotyledonous test plants; experiment: Example B1 herbicidal action, application post-emergence (Table B1a); assay type: in vivo; settings: 250 g/ha, evaluated after 3 weeks, scale 0-10
Protocol: (§1) Monocotyledonous and dicotyledonous test plants were sown in seed trays in standard soil. Immediately after sowing (pre-emergence) or after 8 to 9 days cultivation (post-emergence), the test compounds were applied by spraying in the form of an aqueous solution derived from the formulation of the technical active ingredient in 0.6 ml acetone and 45 ml formulation solution containing 10.6% Emulsogen EL (CAS RN 61791-12-6), 42.2% N-methylpyrrolidone, 42.2% dipropylene glycol monomethyl ether (CAS RN 34590-94-8) and 0.2% X-77 (CAS RN 11097-66-8). The test plants were then grown in a greenhouse under optimum conditions. After a test duration of 3 weeks (post-emergence) or 4 weeks (pre-emergence), the test was evaluated (10=total damage to plant, 0=no damage to plant).

[2] = system: Monocotyledonous and dicotyledonous test plants; experiment: Example B1 herbicidal action, application pre-emergence (Table B1b); assay type: in vivo; settings: 250 g/ha, evaluated after 4 weeks
Protocol: as §1

Structure (SMILES)	herbicidal damage rating, Abutilon [1]	herbicidal damage rating, Amaranthus [1]	herbicidal damage rating, Digitaria [1]	herbicidal damage rating, Panicum [1]	herbicidal damage rating, Setaria [1]	herbicidal damage rating, Sida [1]	herbicidal action (damage rating 0-10), Amaranthus [2]	herbicidal action (damage rating 0-10), Digitaria [2]	herbicidal action (damage rating 0-10), Panicum [2]	herbicidal action (damage rating 0-10), Setaria [2]	herbicidal action (damage rating 0-10), Sida [2]
CC1(C)CC(S(=O)(=O)C(F)(F)c2ccccc2[S+]([O-])C(F)(F)F)=NO1 (racemic) [1.69]	4	3	8	5	7	5	5	10	10	10	4
CC1(C)CC(S(=O)(=O)C(F)(Cl)c2ccccc2C#N)=NO1 (racemic) [1.71]	0	5	8	0	3	2	10	9	10	9	5
Cc1ccccc1C(F)(Cl)S(=O)(=O)C1=NOC(C)(C)C1 (racemic) [1.74]	0	0	8	5	3	3	5	9	10	9	7
CC1(C)CC(S(=O)(=O)C(F)(Cl)c2ccccc2)=NO1 (racemic) [1.75]	5	3	8	5	5	4	10	10	10	10	7
CC1(C)CC(S(=O)(=O)C(Br)c2c(F)cccc2C(F)(F)F)=NO1 (racemic) [1.80]	4	0	8	5	7	5	10	10	10	10	9
CC1(C)CC(S(=O)(=O)C(Br)c2ccccc2C#N)=NO1 (racemic) [1.83]	5	5	9	7	7	3	9	9	10	9	0
Cc1ccccc1C(F)S(=O)(=O)C1=NOC(C)(C)C1 (racemic) [1.93]	3	7	7	8	3	2	8	10	10	10	6
COC(=O)c1ccc(C(F)(F)S(=O)(=O)C2=NOC(C)(C)C2)c(F)c1 [1.119]	3	5	3	7	7	4					
CCOC(=O)c1ccc(C(F)(Cl)S(=O)(=O)C2=NOC(C)(C)C2)c(F)c1 (stereo not shown) [1.128]	2	5	4	7	3	0					
COc1ccccc1C(F)(Cl)S(=O)(=O)C1=NOC(C)(C)C1 (stereo not shown) [1.142]	0	0	8	7	5	3					
CC1(C)CC(S(=O)(=O)C(F)(Cl)c2ccccc2-c2ccccc2)=NO1 (stereo not shown) [1.149]	4	4	5	5	3	5					
COCCC(c1c(F)cccc1F)S(=O)(=O)C1=NOC(C)(C)C1 (stereo not shown) [Compound No. 1.03]	0	9	6	9		5					
Cc1nsc(C#N)c1C(F)S(=O)(=O)C1=NOC(C)(C)C1 (stereo not shown) [Compound No. 3.01, 4-[(5,5-dimethyl-4,5-dihydroisoxazole-3-sulfonyl)-fluoromethyl]-3-methyl-isothiazole-5-carbonitrile]							7	8	10	7	0
Cc1nsc(C#N)c1C(F)(F)S(=O)(=O)C1=NOC(C)(C)C1 [Compound No. 3.02, 4-[(5,5-dimethyl-4,5-dihydroisoxazole-3-sulfonyl)-difluoro-methyl]-3-methyl-isothiazole-5-carbonitrile]							7	10	10	10	0
Cc1noc(C)c1C(Cl)S(=O)(=O)C1=NOC(C)(C)C1 (stereo not shown) [Compound No. 3.03]							7	9	10	10	0
Cc1noc(C)c1C(Cl)(Cl)S(=O)(=O)C1=NOC(C)(C)C1 [Compound No. 3.04]							3	9	10	9	0
COc1cc(C(Cl)S(=O)(=O)C2=NOC(C)(C)C2)on1 (stereo not shown) [Compound No. 5.01, 5-[chloro-(5,5-dimethyl-4,5-dihydroisoxazole-3-sulfonyl)-methyl]-3-methoxy-isoxazole]							0	8		8	2
